# From BindingDB's records for patent US12180196 (Hoffmann-La Roche, 2024)
# Molecular target: Cannabinoid receptor 2 (Homo sapiens, UniProt P34972)
# Test: Radioligand Binding Assay
# Procedure: The affinity of the compounds of the invention for cannabinoid CB1 receptors was determined using recommended amounts of membrane preparations (PerkinElmer) of human embryonic kidney (HEK) cells expressing the human CNR1 or CNR2 receptors in conjunction with 1.5 or 2.6 nM [3H]-CP-55,940 (Perkin Elmer) as radioligand, respectively. Binding was performed in binding buffer (50 mM Tris, 5 mM MgCl2, 2.5 mM EDTA, and 0.5% (wt/vol) fatty acid free BSA, pH 7.4 for CB1 receptor and 50 mM Tris, 5 mM MgCl2, 2.5 mM EGTA, and 0.1% (wt/vol) fatty acid free BSA, pH 7.4 for CB2 receptor) in a total volume of 0.2 ml for 1 h at 30° C. shaking. The reaction was terminated by rapid filtration through microfiltration plates coated with 0.5% polyethylenimine (UniFilter GF/B filter plate; Packard). Bound radioactivity was analyzed for Ki using nonlinear regression analysis (Activity Base, ID Business Solution, Limited), with the Kd values for [3H]CP55,940 determined from saturation experiments. The compounds of formula (I) show an excellent affinity for the CB2 receptor.
# Cannabinoid receptor 2, sequence (P34972 whole entry): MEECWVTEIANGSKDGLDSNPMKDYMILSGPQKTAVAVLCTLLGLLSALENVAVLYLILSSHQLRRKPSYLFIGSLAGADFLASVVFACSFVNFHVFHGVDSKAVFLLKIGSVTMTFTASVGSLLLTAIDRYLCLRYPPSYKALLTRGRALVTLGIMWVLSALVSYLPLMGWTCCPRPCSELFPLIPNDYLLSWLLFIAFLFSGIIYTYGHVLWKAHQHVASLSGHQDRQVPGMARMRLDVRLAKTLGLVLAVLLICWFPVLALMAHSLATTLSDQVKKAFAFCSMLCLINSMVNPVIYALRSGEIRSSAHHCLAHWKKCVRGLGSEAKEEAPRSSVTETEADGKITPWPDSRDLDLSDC
smiles,measurement,value
"CCOC(=O)C(CC)(CC)NC(=O)c1ccc(N2CC(OCF)C2)c(OCC2CC2)n1 [US12180196, Example 3]",Ki,14 nM
